Reference: ChEMBL document CHEMBL3991601, “The target landscape of clinical kinase drugs” (Science, 2017)
The source made the active and inactive calls.

How the values were obtained:
[1] = biological target: Serine/threonine-protein kinase N1 (Homo sapiens, UniProt Q16512)
ADP/ATP translocase 3 = biological target: T1, ADP/ATP translocase 3 (Homo sapiens, UniProt P12236)
T1 sequence (P12236 whole entry): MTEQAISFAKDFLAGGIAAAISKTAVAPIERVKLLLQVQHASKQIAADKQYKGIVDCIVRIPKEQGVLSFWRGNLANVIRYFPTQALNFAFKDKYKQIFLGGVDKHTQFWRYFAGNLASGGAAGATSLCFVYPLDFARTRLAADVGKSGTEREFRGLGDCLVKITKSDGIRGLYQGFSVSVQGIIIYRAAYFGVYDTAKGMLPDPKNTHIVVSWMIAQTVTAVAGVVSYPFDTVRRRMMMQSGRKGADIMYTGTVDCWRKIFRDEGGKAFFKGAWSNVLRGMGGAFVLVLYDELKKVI

Ephrin type-B receptor 4 = biological target: T2, Ephrin type-B receptor 4 (Homo sapiens, UniProt P54760)
T2 sequence (P54760 whole entry): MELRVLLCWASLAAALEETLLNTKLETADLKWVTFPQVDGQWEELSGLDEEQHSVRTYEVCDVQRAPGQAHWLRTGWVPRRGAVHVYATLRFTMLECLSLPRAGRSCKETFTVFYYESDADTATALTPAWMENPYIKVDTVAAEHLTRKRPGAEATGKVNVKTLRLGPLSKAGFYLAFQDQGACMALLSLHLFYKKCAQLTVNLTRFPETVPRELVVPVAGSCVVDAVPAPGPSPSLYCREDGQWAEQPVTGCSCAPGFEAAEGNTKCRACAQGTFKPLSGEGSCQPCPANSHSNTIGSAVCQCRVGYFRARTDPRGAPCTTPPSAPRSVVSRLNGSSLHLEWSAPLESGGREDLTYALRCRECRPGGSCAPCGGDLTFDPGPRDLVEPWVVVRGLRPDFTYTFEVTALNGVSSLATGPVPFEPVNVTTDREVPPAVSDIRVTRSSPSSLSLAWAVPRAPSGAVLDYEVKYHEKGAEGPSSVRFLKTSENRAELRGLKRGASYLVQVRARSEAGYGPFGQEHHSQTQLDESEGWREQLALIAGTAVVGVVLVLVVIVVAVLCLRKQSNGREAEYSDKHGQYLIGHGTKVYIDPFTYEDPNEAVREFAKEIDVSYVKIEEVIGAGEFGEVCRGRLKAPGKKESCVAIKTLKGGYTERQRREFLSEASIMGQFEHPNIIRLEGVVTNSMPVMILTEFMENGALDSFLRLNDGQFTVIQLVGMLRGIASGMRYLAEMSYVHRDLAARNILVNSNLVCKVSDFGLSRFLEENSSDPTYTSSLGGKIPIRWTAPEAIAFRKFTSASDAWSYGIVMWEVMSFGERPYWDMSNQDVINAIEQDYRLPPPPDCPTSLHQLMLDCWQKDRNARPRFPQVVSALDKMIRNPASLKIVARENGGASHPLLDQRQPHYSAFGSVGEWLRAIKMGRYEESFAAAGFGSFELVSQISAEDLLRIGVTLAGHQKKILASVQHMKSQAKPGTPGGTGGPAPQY

[2] = biological target: Mitogen-activated protein kinase 10 (Homo sapiens, UniProt P53779)
Chain of Mitogen-activated protein kinase 10 (P53779 whole entry): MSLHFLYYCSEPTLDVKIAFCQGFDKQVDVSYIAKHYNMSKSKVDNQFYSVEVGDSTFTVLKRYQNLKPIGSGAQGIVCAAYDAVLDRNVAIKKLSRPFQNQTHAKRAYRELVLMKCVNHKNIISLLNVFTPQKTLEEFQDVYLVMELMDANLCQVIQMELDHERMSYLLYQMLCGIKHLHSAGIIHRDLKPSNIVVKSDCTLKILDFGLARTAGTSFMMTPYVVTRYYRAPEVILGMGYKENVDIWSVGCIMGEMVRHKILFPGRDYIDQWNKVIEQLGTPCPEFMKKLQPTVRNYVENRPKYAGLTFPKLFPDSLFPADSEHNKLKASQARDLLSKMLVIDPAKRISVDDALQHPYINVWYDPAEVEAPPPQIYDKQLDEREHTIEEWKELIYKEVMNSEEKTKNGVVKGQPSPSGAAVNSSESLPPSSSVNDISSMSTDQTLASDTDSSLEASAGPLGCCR

Midasin = Midasin (Homo sapiens, UniProt Q9NU22)
[3] = biological target: T3, Acyl-CoA dehydrogenase family member 11 (Homo sapiens, UniProt Q709F0)
T3 sequence (Q709F0 whole entry): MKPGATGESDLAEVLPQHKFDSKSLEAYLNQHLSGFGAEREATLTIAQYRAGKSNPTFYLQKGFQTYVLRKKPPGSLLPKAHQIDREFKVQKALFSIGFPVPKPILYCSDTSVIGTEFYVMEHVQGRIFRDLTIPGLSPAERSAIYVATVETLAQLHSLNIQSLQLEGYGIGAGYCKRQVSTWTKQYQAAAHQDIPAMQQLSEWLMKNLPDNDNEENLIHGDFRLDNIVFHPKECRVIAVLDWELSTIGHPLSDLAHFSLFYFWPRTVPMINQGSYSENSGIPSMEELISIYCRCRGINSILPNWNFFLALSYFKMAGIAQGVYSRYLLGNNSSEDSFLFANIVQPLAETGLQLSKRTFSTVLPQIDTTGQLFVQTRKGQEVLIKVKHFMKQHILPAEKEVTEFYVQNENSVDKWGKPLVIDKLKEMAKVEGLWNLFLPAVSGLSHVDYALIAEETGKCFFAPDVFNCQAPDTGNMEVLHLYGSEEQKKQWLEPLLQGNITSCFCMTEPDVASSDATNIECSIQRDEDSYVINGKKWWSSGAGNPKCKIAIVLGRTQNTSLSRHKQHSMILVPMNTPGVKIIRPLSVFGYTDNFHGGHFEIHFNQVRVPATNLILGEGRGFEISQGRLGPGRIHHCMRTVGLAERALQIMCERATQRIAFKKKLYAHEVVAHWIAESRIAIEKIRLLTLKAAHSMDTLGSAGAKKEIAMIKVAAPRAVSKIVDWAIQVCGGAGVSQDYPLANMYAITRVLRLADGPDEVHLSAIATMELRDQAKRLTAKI

[4] = biological target: Maternal embryonic leucine zipper kinase (Homo sapiens, UniProt Q14680)
Chain of Maternal embryonic leucine zipper kinase (Q14680 whole entry): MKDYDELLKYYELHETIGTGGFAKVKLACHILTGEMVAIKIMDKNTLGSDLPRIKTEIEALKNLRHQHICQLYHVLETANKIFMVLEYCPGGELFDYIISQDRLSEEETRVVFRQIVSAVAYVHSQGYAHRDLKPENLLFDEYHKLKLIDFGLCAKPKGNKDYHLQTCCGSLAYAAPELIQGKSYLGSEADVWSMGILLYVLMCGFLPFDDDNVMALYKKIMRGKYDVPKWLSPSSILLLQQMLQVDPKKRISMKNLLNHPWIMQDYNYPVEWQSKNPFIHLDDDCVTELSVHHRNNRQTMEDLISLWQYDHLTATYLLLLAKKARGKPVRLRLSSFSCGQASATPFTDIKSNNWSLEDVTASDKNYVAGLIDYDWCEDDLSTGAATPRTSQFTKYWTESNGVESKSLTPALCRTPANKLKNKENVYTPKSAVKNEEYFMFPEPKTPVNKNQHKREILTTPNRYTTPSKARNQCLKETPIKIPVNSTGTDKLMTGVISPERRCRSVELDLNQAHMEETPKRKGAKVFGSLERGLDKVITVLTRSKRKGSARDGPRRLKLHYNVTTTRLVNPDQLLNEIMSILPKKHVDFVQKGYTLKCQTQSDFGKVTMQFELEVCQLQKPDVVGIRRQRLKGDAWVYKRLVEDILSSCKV

[5] = biological target: STE20-like serine/threonine-protein kinase (Homo sapiens, UniProt Q9H2G2)
Chain of STE20-like serine/threonine-protein kinase (Q9H2G2 whole entry): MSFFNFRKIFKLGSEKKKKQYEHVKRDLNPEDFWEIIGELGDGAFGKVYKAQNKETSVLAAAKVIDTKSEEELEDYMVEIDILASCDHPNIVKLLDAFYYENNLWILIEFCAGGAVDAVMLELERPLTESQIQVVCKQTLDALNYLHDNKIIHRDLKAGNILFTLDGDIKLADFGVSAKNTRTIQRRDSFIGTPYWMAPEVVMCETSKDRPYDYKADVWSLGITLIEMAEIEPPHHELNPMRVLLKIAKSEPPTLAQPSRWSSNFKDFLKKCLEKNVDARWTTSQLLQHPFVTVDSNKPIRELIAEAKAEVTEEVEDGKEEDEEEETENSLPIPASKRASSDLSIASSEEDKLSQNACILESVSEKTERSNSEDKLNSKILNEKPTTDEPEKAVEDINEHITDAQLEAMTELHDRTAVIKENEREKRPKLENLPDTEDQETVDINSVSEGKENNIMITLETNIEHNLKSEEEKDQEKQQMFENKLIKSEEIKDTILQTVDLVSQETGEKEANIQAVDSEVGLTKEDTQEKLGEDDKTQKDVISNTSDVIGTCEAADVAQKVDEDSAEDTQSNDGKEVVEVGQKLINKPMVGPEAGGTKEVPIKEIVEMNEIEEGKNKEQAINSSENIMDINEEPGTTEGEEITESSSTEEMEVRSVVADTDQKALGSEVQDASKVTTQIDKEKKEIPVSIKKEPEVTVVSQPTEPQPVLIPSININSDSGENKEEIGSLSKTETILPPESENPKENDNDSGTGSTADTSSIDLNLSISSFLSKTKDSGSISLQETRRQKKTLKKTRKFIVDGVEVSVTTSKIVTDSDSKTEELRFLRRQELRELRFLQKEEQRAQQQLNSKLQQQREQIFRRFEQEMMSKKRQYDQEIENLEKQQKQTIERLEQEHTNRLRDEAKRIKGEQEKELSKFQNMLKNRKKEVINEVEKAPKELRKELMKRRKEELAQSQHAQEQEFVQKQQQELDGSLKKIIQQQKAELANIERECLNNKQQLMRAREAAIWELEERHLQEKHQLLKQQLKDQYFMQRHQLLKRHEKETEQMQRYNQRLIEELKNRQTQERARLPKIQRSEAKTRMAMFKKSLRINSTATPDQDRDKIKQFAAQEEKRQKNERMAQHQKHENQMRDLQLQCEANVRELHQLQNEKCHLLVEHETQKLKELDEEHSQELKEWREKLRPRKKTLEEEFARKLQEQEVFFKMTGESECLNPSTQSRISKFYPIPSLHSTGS

[6] = biological target: DNA topoisomerase 2-alpha (Homo sapiens, UniProt P11388)
Chain of DNA topoisomerase 2-alpha (P11388 whole entry): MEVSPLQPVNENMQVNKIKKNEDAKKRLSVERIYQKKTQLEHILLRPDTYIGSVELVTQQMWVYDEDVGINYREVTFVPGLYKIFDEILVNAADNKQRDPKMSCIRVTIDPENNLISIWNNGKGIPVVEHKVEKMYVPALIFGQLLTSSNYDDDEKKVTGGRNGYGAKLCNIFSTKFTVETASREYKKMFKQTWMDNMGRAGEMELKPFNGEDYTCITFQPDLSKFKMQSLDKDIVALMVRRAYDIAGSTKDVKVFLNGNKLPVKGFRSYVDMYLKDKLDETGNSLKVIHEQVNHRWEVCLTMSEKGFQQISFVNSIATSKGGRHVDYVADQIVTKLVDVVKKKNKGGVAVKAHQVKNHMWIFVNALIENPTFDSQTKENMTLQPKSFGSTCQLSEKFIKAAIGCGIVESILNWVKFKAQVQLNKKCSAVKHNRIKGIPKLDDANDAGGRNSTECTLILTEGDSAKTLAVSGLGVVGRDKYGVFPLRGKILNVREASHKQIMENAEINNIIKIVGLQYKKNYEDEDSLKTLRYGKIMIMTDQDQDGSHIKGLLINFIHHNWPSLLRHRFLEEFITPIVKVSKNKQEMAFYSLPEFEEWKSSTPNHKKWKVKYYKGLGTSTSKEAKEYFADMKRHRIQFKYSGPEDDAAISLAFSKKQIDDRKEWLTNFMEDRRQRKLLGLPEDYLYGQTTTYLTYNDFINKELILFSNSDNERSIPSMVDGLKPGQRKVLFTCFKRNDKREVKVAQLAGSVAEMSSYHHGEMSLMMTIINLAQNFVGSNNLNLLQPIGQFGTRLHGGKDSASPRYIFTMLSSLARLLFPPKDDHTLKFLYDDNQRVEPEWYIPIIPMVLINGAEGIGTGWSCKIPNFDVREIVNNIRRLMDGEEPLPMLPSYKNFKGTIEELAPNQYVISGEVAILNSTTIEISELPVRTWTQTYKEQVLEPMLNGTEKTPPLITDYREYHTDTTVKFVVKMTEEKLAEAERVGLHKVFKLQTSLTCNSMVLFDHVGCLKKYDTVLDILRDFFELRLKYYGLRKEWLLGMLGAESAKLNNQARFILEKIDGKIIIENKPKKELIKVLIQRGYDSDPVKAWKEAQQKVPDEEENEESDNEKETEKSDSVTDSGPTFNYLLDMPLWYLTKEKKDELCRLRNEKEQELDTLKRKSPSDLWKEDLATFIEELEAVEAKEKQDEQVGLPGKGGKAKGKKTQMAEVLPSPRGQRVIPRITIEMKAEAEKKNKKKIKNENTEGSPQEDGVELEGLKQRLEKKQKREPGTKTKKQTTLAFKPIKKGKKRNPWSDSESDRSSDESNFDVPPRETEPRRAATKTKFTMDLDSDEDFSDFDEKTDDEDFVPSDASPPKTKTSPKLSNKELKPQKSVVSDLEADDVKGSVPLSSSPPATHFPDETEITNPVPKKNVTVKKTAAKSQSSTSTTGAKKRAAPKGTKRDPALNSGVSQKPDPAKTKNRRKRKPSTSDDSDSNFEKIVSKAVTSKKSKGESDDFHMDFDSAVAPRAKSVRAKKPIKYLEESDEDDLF

[7] = biological target: T4, STE20-related kinase adapter protein alpha (Homo sapiens, UniProt Q7RTN6)
T4 sequence (Q7RTN6 whole entry): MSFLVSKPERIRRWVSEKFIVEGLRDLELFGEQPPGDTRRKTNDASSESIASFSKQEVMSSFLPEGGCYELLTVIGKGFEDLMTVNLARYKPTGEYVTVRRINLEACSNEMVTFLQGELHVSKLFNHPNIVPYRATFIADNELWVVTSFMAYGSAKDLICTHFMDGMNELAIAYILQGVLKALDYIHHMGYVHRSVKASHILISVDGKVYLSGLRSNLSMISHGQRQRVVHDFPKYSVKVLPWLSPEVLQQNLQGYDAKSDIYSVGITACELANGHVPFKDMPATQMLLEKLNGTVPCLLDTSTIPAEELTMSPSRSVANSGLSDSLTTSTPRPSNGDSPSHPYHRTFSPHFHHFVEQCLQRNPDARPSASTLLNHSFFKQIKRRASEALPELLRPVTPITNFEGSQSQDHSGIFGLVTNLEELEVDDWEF
Further: in the data inactive means no Kd found up to 30 µM.

Chain of Serine/threonine-protein kinase N1 (Q16512 whole entry): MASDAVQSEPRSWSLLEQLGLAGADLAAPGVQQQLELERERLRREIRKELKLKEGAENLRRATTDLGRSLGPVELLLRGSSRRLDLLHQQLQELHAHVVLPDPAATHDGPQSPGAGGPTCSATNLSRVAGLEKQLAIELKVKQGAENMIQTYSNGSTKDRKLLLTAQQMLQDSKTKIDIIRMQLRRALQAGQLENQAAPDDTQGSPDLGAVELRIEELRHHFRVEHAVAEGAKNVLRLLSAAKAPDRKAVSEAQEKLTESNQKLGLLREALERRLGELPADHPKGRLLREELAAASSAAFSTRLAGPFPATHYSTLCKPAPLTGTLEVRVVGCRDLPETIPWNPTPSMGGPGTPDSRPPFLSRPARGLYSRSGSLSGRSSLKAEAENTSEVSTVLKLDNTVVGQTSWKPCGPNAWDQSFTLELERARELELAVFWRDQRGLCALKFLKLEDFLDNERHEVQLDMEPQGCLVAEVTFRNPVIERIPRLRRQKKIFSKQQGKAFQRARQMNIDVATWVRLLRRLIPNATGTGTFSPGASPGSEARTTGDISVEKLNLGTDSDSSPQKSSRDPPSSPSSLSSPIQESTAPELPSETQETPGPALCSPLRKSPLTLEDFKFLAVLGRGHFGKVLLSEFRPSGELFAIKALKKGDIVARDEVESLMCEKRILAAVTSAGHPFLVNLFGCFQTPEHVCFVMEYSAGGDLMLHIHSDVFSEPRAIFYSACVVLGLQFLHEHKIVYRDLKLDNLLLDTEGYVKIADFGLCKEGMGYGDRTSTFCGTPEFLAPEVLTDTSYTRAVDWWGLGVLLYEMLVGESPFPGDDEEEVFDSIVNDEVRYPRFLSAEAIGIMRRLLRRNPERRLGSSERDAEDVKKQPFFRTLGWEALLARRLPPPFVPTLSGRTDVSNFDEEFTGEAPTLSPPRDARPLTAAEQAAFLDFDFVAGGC

Kd [1]	Kd (ADP/ATP translocase 3)	Kd (Ephrin type-B receptor 4)	Kd [2]	Kd (Midasin)	Kd [3]	Kd [4]	Kd [5]	Kd [6]	Kd [7]	SMILES
0.416 µM (active)	> 30 µM (inactive)	> 30 µM (inactive)	> 30 µM (inactive)	> 30 µM (inactive)	> 30 µM (inactive)	> 30 µM (inactive)	> 30 µM (inactive)			C[C@H]1CNCCCN1S(=O)(=O)c1cccc2cncc(F)c12
> 30 µM (inactive)	> 30 µM (inactive)		> 30 µM (inactive)	> 30 µM (inactive)	> 30 µM (inactive)			> 30 µM (inactive)	> 30 µM (inactive)	COc1cc(Nc2ncc3c(n2)-c2ccc(Cl)cc2C(c2c(F)cccc2OC)=NC3)ccc1C(=O)O [ALISERTIB]
	> 30 µM (inactive)		0.358 µM (active)	> 30 µM (inactive)	> 30 µM (inactive)		0.402 µM (active)	> 30 µM (inactive)	> 30 µM (inactive)	O=C(Nc1c[nH]nc1-c1nc2cc(CN3CCOCC3)ccc2[nH]1)NC1CC1 [AT-9283]
	> 30 µM (inactive)			> 30 µM (inactive)	> 30 µM (inactive)			> 30 µM (inactive)	> 30 µM (inactive)	CNC(=O)c1ccccc1Sc1ccc2c(/C=C/c3ccccn3)n[nH]c2c1 [AXITINIB]
> 30 µM (inactive)	> 30 µM (inactive)	> 30 µM (inactive)	> 30 µM (inactive)	> 30 µM (inactive)	> 30 µM (inactive)	> 30 µM (inactive)	> 30 µM (inactive)		> 30 µM (inactive)	CCn1c(C(=O)N(C2CC2)C2CC2)cc2c3c(ncn3C)c(Nc3cc(C)n(C)n3)nc21 [BMS-911543]
> 30 µM (inactive)	> 30 µM (inactive)	> 30 µM (inactive)	> 30 µM (inactive)	> 30 µM (inactive)	> 30 µM (inactive)	> 30 µM (inactive)	> 30 µM (inactive)		> 30 µM (inactive)	COc1c(OCCCN2CCOCC2)ccc2c1N=C(NC(=O)c1cnc(N)nc1)N1CCN=C21 [COPANLISIB]
	> 30 µM (inactive)			> 30 µM (inactive)	> 30 µM (inactive)			> 30 µM (inactive)	> 30 µM (inactive)	C[C@@H](Oc1cc(-n2cnc3ccc(CN4CCN(C)CC4)cc32)sc1C(N)=O)c1ccccc1C(F)(F)F [GSK-461364]
> 30 µM (inactive)	> 30 µM (inactive)	1.07 µM (active)		> 30 µM (inactive)	> 30 µM (inactive)		> 30 µM (inactive)		> 30 µM (inactive)	CNC(=O)c1nn(C)c2c1C(C)(C)Cc1cnc(Nc3ccc(N4CCN(C)CC4)cc3)nc1-2 [MILCICLIB]
> 30 µM (inactive)	> 30 µM (inactive)	> 30 µM (inactive)		> 30 µM (inactive)	> 30 µM (inactive)			> 30 µM (inactive)	> 30 µM (inactive)	Cc1[nH]c(/C=C2\C(=O)Nc3ccccc32)c(C)c1CCC(=O)O [ORANTINIB]
	> 30 µM (inactive)	> 30 µM (inactive)	> 30 µM (inactive)	> 30 µM (inactive)	> 30 µM (inactive)			> 30 µM (inactive)	> 30 µM (inactive)	NC(=O)c1c(OCc2c(F)cc(Br)cc2F)nsc1NC(=O)NCCCCN1CCCC1 [OSI-632]
2.94 µM (active)	> 30 µM (inactive)	> 30 µM (inactive)	> 30 µM (inactive)	> 30 µM (inactive)	> 30 µM (inactive)				> 30 µM (inactive)	CC(=O)NCC(=O)N1[C@@H]2CC[C@H]1c1ccc(Nc3ncc(C(F)(F)F)c(NC4CCC4)n3)cc12 [PF-03814735]
	> 30 µM (inactive)			> 30 µM (inactive)	> 30 µM (inactive)			> 30 µM (inactive)	> 30 µM (inactive)	O=C(NOCCO)c1cc(CN2OCCCC2=O)c(F)c(F)c1Nc1ccc(I)cc1F [RO-4987655]
	> 30 µM (inactive)			> 30 µM (inactive)	> 30 µM (inactive)				3.67 µM	N#CC[C@H](C1CCCC1)n1cc(-c2ncnc3[nH]ccc23)cn1 [RUXOLITINIB]
2.98 µM (active)	> 30 µM (inactive)	0.656 µM (active)	> 30 µM (inactive)	> 30 µM (inactive)	> 30 µM (inactive)		1.35 µM (active)		> 30 µM (inactive)	CCS(=O)(=O)c1cccc(-c2cc(C(=O)NC3CCN(C)CC3)c(C)c3[nH]c4ncc(C)cc4c23)c1 [TAK-901]

SMILES	Kd [1]	Kd (ADP/ATP translocase 3)	Kd (Ephrin type-B receptor 4)	Kd [2]	Kd (Midasin)	Kd [3]	Kd [4]	Kd [5]	Kd [6]	Kd [7]
CC(=O)c1cnc2ccc(-c3cc(Cl)c(O)c(Cl)c3)nc2c1N[C@H]1CC[C@H](CN(C)C)CC1	0.244 µM (active)	> 30 µM (inactive)	0.143 µM (active)	0.112 µM (active)	> 30 µM (inactive)			0.113 µM (active)	> 30 µM (inactive)	> 30 µM (inactive)
Cn1cc(C2=C(c3cn(C4CCN(Cc5ccccn5)CC4)c4ccccc34)C(=O)NC2=O)c2ccccc21 [ENZASTAURIN]		> 30 µM (inactive)			> 30 µM (inactive)					> 30 µM (inactive)
O=C(Nc1nc2cccc(-c3ccc(CN4CCS(=O)(=O)CC4)cc3)n2n1)C1CC1 [FILGOTINIB]	> 30 µM (inactive)	> 30 µM (inactive)	> 30 µM (inactive)	2.14 µM (active)	> 30 µM (inactive)	> 30 µM (inactive)	> 30 µM (inactive)	9.27 µM (active)		> 30 µM (inactive)
CCCCCCCCCCCCCCCCCCOP(=O)([O-])OC1CC[N+](C)(C)CC1 [PERIFOSINE]	> 30 µM (inactive)	> 30 µM (inactive)	> 30 µM (inactive)	> 30 µM (inactive)	> 30 µM (inactive)		> 30 µM (inactive)	> 30 µM (inactive)		> 30 µM (inactive)
